Experimental data taken from patent US7488481B2, “Polypeptides derived from anti-HIV-1 gp120 antibodies that abrogate gp120 binding to CCR5” (priority 2003, dated 2009).
Ends that are not written are not given here. * marks the point of attachment. SO3H = O=S(=O)(O)*

Experiments:
[1] = tested on: association of gp120 with CCR5; conditions: peptides previously characterized; cited from earlier work
[2] = tested on: ADA gp120; assay: Peptide competition of scFv association with ADA gp120 and CD4-Ig; type: binding, HIV-1; conditions: scFv of sulfated antibodies
Description: Radiolabeled single-chain antibody constructs (scFv) were incubated with radiolabeled gp120 of the ADA isolate in the presence and absence of soluble CD4. […] Ratios of gp120 precipitated in the presence and absence of soluble CD4 were calculated by densitometry. Radiolabeled scFv was incubated with ADA gp120 and CD4-Ig in the presence of peptide buffer (buffer only), an unsulfated peptide derived from the first 22 residues of the CCR5 amino-terminus (c22), a peptide derived from the first 22 residues of the CCR5 amino-terminus in which tyrosines 10 and 14 are sulfated (s22), or a peptide derived from residues 7-28 of the C5a receptor sulfated at the tyrosines corresponding to residues 11 and 14 of the C5a receptor (c5aR-s22).

[3] = tested on: interaction between gp120 and CCR5; assay: Effectiveness of peptides based upon E51

Row | Substance | effect of peptide on the association of gp120 with CCR5 [1] | effect of peptide on association of scFv with ADA gp120 [2] | effectiveness compared with the longer sequence SEQ ID NO:4 [3]
1 | c5aR-s22: peptide from residues 7-28 of the C5a receptor sulfated at tyrosines 11 and 14 | did not have a noticeable effect | very modest inhibition | 
2 | s22: peptide from the first 22 residues of the CCR5 amino-terminus in which tyrosines 10 and 14 are sulfated (MDYQVSSPIY(SO3H)DINY(SO3H)YTSEPCQK) |  | inhibited | 
3 | c22: unsulfated peptide derived from the first 22 residues of the CCR5 amino-terminus (MDYQVSSPIYDINYYTSEPCQK; UniProt P51681 1-22, looked up, fragment) |  | no significant effect | 
4 | GDYADYDGGYYYDMD (listed as Homo sapiens) [SEQ ID NO:3, shorter peptide based upon E51] |  |  | just as effective as the longer sequence
